{"source": "ChEMBL document CHEMBL5223068", "about": "“Novel thiobarbiturates as potent urease inhibitors with potential antibacterial activity: Design, synthesis, radiolabeling and biodistribution study” (Bioorg Med Chem, 2020)", "key": {"[1]": {"assay": "Inhibition of urease (unknown origin) incubated for 30 mins by microplate reader based analysis"}, "Proteus mirabilis": {"test_system": "Proteus mirabilis", "assay": "Antibacterial activity against clinical isolate Proteus mirabilis incubated for 18 to 24 hrs by broth microdilution assay", "type": "functional", "conditions": "time 18-24 hrs; call rule not given here"}, "Klebsiella pneumoniae [2]": {"test_system": "Klebsiella pneumoniae", "assay": "Antibacterial activity against Klebsiella pneumoniae ATCC 700603 incubated for 18 to 24 hrs by broth microdilution assay", "type": "functional", "conditions": "time 18-24 hrs"}, "Klebsiella pneumoniae [3]": {"test_system": "Klebsiella pneumoniae", "assay": "Antibacterial activity against clinical isolate Klebsiella pneumoniae incubated for 18 to 24 hrs by broth microdilution assay", "type": "functional", "conditions": "time 18-24 hrs"}, "Proteus vulgaris": {"test_system": "Proteus vulgaris", "assay": "Antibacterial activity against Proteus vulgaris ATCC 13315 incubated for 18 to 24 hrs by broth microdilution assay", "type": "functional", "conditions": "time 18-24 hrs"}, "Escherichia coli": {"test_system": "Escherichia coli", "assay": "Antibacterial activity against Escherichia coli incubated for 24 to 48 hrs", "type": "functional", "conditions": "time 24-48 hrs"}, "[4]": {"assay": "Inhibition of urease (unknown origin) assessed as reduction on ammonia production incubated for 15 mins by indophenol reagent based microplate reader assay"}, "[5]": {"assay": "Drug uptake in Swiss albino muscle infected mouse kidney measured upto 180 mins", "type": "ADME, tissue-based", "conditions": "in vivo, 3 h"}, "[6]": {"assay": "Biodistribution in Swiss albino muscle infected mouse assessed as ratio of infected muscle to normal muscle measured at all time intervals", "type": "ADME, organism-based, Muscle tissue", "conditions": "in vivo"}, "[7]": {"assay": "Biodistribution in Swiss albino muscle infected mouse assessed as ratio of infected muscle to normal muscle measured after 30 mins post injection", "type": "ADME, organism-based, Muscle tissue", "conditions": "in vivo, 0.5 h"}}, "note": "pIC50: −log10 of the molar value."}
{"molecule": "CCOC(=O)/C(=C\\N(C)C)C1C(=O)NC(=S)NC1=O", "values": [{"measurement": "pIC50", "setting": "[1]", "value": 4.87}, {"measurement": "MIC", "setting": "Proteus mirabilis", "value": 15, "unit": "µg/mL"}, {"measurement": "MIC", "setting": "Klebsiella pneumoniae [2]", "value": 31.2, "unit": "µg/mL"}, {"measurement": "MIC", "setting": "Klebsiella pneumoniae [3]", "value": 62.5, "unit": "µg/mL"}]}
{"molecule": "CC1=C(C(=O)O)N2C(=O)[C@@H](NC(=O)[C@H](N)c3ccccc3)[C@H]2SC1", "note": "[CEPHALEXIN ANHYDROUS]", "values": [{"measurement": "MIC", "setting": "Proteus vulgaris", "value": 125, "unit": "µg/mL"}, {"measurement": "MIC", "setting": "Proteus mirabilis", "value": 125, "unit": "µg/mL"}, {"measurement": "MIC", "setting": "Klebsiella pneumoniae [2]", "value": 125, "unit": "µg/mL"}, {"measurement": "MIC", "setting": "Klebsiella pneumoniae [3]", "value": "> 250", "unit": "µg/mL"}]}
{"molecule": "NC(=O)NNC(=O)CC1C(=O)NC(=S)NC1=O", "values": [{"measurement": "pIC50", "setting": "[1]", "value": 4.57}, {"measurement": "MIC", "setting": "Proteus vulgaris", "value": 16, "unit": "µg/mL"}, {"measurement": "MIC", "setting": "Klebsiella pneumoniae [2]", "value": 31.2, "unit": "µg/mL"}, {"measurement": "MIC", "setting": "Klebsiella pneumoniae [3]", "value": 62.5, "unit": "µg/mL"}]}
{"molecule": "O=C1C(C(=O)C(F)(F)F)C(=O)N(c2ccc(-c3ncc(-c4ccccc4)[nH]3)cc2)C(=S)N1c1ccc(Cl)cc1", "note": "(stereo unspecified)", "values": [{"measurement": "MIC", "setting": "Escherichia coli", "value": "≤ 6.25", "unit": "µg/mL"}]}
{"molecule": "Cc1cccc(NC(=O)CC2C(=O)NC(=S)NC2=O)c1C", "values": [{"measurement": "pIC50", "setting": "[1]", "value": 4.15}]}
{"molecule": "Cc1ccc(/C=N/NC(=O)CC2C(=O)NC(=S)NC2=O)cc1", "values": [{"measurement": "pIC50", "setting": "[1]", "value": 4.17}]}
{"molecule": "CCCNC(=O)CC1C(=O)NC(=S)NC1=O", "values": [{"measurement": "pIC50", "setting": "[1]", "value": 4.96}]}
{"molecule": "Cc1ccc(NC(=O)CC2C(=O)NC(=S)NC2=O)c(C)c1", "values": [{"measurement": "pIC50", "setting": "[1]", "value": 4.12}]}
{"molecule": "CCN1C(=O)C(C(c2ccccc2)C2C(=O)N(CC)C(=S)N(CC)C2=O)C(=O)N(CC)C1=S", "values": [{"measurement": "pIC50", "setting": "[4]", "value": 5.13}]}
{"molecule": "COC(=O)c1ccc(NC(=O)CC2C(=O)NC(=S)NC2=O)cc1", "values": [{"measurement": "pIC50", "setting": "[1]", "value": 4.64}]}
{"molecule": "CC(C)CNC(=O)CC1C(=O)NC(=S)NC1=O", "values": [{"measurement": "pIC50", "setting": "[1]", "value": 4.77}]}
{"molecule": "O=C(CC1C(=O)NC(=S)NC1=O)NCCNC(=O)CC1C(=O)NC(=S)NC1=O", "values": [{"measurement": "pIC50", "setting": "[1]", "value": 4.53}, {"measurement": "MIC", "setting": "Klebsiella pneumoniae [3]", "value": 62.5, "unit": "µg/mL"}]}
{"molecule": "O=C(CC1C(=O)NC(=S)NC1=O)Nc1ccc(F)cc1", "values": [{"measurement": "pIC50", "setting": "[1]", "value": 4.35}]}
{"molecule": "CCOC(=O)CC1C(=O)NC(=S)NC1=O", "values": [{"measurement": "pIC50", "setting": "[1]", "value": 5.00}, {"measurement": "MIC", "setting": "Proteus vulgaris", "value": 31.2, "unit": "µg/mL"}, {"measurement": "MIC", "setting": "Klebsiella pneumoniae [2]", "value": 62.5, "unit": "µg/mL"}, {"measurement": "MIC", "setting": "Klebsiella pneumoniae [3]", "value": 31.2, "unit": "µg/mL"}]}
{"molecule": "NC(N)=S", "note": "[THIOUREA]", "values": [{"measurement": "pIC50", "setting": "[1]", "value": 4.70}, {"measurement": "pIC50", "setting": "[4]", "value": "≥ 4.68"}]}
{"molecule": "NNC(=O)CC1C(=O)NC(=S)NC1=O", "values": [{"measurement": "pIC50", "setting": "[1]", "value": 4.22}, {"measurement": "MIC", "setting": "Klebsiella pneumoniae [2]", "value": 125, "unit": "µg/mL"}]}
{"molecule": "Cc1cccc(NC(=O)CC2C(=O)NC(=S)NC2=O)c1", "values": [{"measurement": "pIC50", "setting": "[1]", "value": 4.12}]}
{"molecule": "O=C(CC1C(=O)NC(=S)NC1=O)N/N=C/c1ccccc1", "values": [{"measurement": "pIC50", "setting": "[1]", "value": 4.26}]}
{"molecule": "O=C1NC(=S)NC(=O)C1CC(=O)N1CCOCC1", "values": [{"measurement": "pIC50", "setting": "[1]", "value": 5.09}, {"measurement": "MIC", "setting": "Proteus vulgaris", "value": 62.5, "unit": "µg/mL"}, {"measurement": "MIC", "setting": "Proteus mirabilis", "value": 62.5, "unit": "µg/mL"}, {"measurement": "MIC", "setting": "Klebsiella pneumoniae [2]", "value": 62.5, "unit": "µg/mL"}, {"measurement": "MIC", "setting": "Klebsiella pneumoniae [3]", "value": 62.5, "unit": "µg/mL"}, {"measurement": "Drug uptake", "setting": "[5]", "value": "Active"}, {"measurement": "Ratio", "setting": "[6]", "value": "> 1"}, {"measurement": "Ratio", "setting": "[7]", "value": 3.72}]}
{"molecule": "Cc1ccccc1NC(=O)CC1C(=O)NC(=S)NC1=O", "values": [{"measurement": "pIC50", "setting": "[1]", "value": 4.28}]}
{"molecule": "O=C(CC1C(=O)NC(=S)NC1=O)OCc1ccccc1", "values": [{"measurement": "pIC50", "setting": "[1]", "value": 4.13}, {"measurement": "MIC", "setting": "Klebsiella pneumoniae [2]", "value": 125, "unit": "µg/mL"}]}
{"molecule": "O=C(CC1C(=O)NC(=S)NC1=O)N/N=C/c1ccccc1O", "values": [{"measurement": "pIC50", "setting": "[1]", "value": 4.03}]}
{"molecule": "O=C(CC1C(=O)NC(=S)NC1=O)Nc1ccccc1", "values": [{"measurement": "pIC50", "setting": "[1]", "value": 4.68}]}
